Laboratory results from publication PMC10522709, “Rational design and characterization of cell-selective antimicrobial peptides based on a bioactive peptide from Crocodylus siamensis hemoglobin” (Scientific Reports, 2023).
Ends that are not written are not given here.

Legend:
human erythrocytes = assay type: cell-based; settings: red cells of human, 1 h
Description: Human whole blood was obtained from Blood Transfusion Center Faculty of Medicine Khon Kaen University (ethical approval number HE601010). Fresh human erythrocytes were carefully mixed with PBS (1:3) and centrifuged at 1000 × g for 2 min. The supernatant was discarded and the cell pellet was resuspended to 2% w/v in PBS. 100 µL of the resuspended erythrocytes were incubated with the peptide (10 µL, final concentrations ranging from 12.5 to 100 μg/mL, two-fold serial dilution) at 37 °C for 1 h. After the treatment, the plate was centrifuged and the supernatant was taken to determine the optical density at 415 nm using a microplate reader (ALLSHENG, Zhejiang, China). The positive control for this assay was the addition of Triton X-100 (1% v/v), which causes 100% hemolysis. The negative control was cells treated with PBS buffer only. The hemolysis activity was estimated using the equation: %hemolysis=OD415ofsample/OD415ofTritonX-100treatedcontrol×100

[1] = test system: Klebsiella pneumoniae (ATCC 27736); assay type: cell-based; settings: ATCC 27736, 24 h
Description: (§1) Broth microdilution assays were performed as reported previously. In short, the bacteria including Escherichia coli (ATCC 25922), Klebsiella pneumoniae (ATCC 27736), Pseudomonas aeruginosa (ATCC 27853), Bacillus subtilis (ATCC 6633), Staphylococcus aureus (ATCC 25923) and Staphylococcus epidermidis (ATCC 12228) were grown in Nutrient broth to mid-log phase at 37 °C. The bacterial suspension (50 μL, concentration of 1 × 10^6 CFU/mL) was loaded into a well with serially diluted peptide (50 µL, final concentrations ranging from 0–200 μg/mL) in a sterile 96-well plate and incubated at 37 °C for 18 h. The optical density (OD) at 600 nm was measured using a microplate reader (ALLSHENG, Zhejiang, China) in order to determine the growth of the bacteria. The inhibition was estimated using the formula; %inhibition=OD600ofcontrol-OD600ofsample/OD600ofcontrol-OD600ofblank×100 where minimal inhibitory concentration (MIC) is defined as the minimum concentration that inhibited 90% of bacterial growth.
(§2) In order to evaluate the minimal bactericidal concentration (MBC)—the lowest concentration that terminates the growth of bacteria on an agar plate—of the peptide, co-culture medium (100 μL) from each well after the microdilution assay was spread on a nutrient agar plate. Plates were maintained at 37 °C for 24 h and the number of colonies formed was counted to evaluate antimicrobial activity.

[2] = test system: Pseudomonas aeruginosa (ATCC 27853); assay type: cell-based; settings: ATCC 27853, 24 h
Description: as §1, §2

[3] = test system: Staphylococcus epidermidis (ATCC 12228); assay type: cell-based; settings: ATCC 12228, 24 h
Description: as §1, §2

[4] = test system: Bacillus subtilis (ATCC 6633); assay type: cell-based; settings: ATCC 6633, 24 h
Description: as §1, §2

[5] = test system: Escherichia coli (ATCC 25922); assay type: cell-based; settings: ATCC 25922, 24 h
Description: as §1, §2

[6] = test system: Staphylococcus aureus (ATCC 25923); assay type: cell-based; settings: ATCC 25923, 24 h
Description: as §1, §2

[7] = test system: Bacillus subtilis (ATCC 6633); assay type: cell-based; settings: ATCC 6633, 18 h
Description: as §1

[8] = test system: Escherichia coli (ATCC 25922); assay type: cell-based; settings: ATCC 25922, 18 h
Description: as §1

E. coli (ATCC25922) = assay: Time-killing kinetics assay; assay type: cell-based, Escherichia coli
Description: The time-killing kinetics of peptide was determined as described previously by Yaraksa et al.[16] In short, E. coli (ATCC25922) and S. epidermidis (ATCC12228) cells grown overnight were diluted in the Nutrient broth to a concentration of 1 × 10^6 CFU/mL. The diluted bacterial suspension (50 µL) was incubated with the peptide solution (50 µL, final concentration = 1 × MIC or 2 × MIC) at 37 °C. 10 µL of the mixture was taken at regular time intervals (0, 15, 30, 60, 180, 360, 540 and 720 min for 1 × MIC and 0, 30, 60, 180, 360, 720, 1440, 2160 and 2880 min for 2 × MIC), diluted and cultured on nutrient agar plates for 24 h. Bacterial cells were then counted and a graph of the log CFU/mL against incubation time was plotted to evaluate the rate at which peptides kill bacterial cells.

[9] = test system: human keratinocyte cells (HaCaT); assay type: cell-based; settings: 24 h
Description: (§3) Human peripheral blood mononuclear cells (PBMC), African green monkey kidney cells (Vero), human keratinocyte cells (HaCaT) and mouse preadipocytes (3T3-L1) were used to evaluate the cytotoxicity of peptides by the MTT assay. PBMCs were isolated using Ficoll medium (GE Healthcare, Uppsala, Sweden) as described by Jangpromma et al.[28]. The PBMCs were then cultured in RPMI 1640, while Vero, HaCaT and 3T3-L1 cells were cultured in DMEM. All culture mediums were supplemented with 10% heat-inactivated fetal bovine serum (FBS) and 1% antibiotic:antimycotic (Gibco, USA). The cells were cultured at 37 °C with 5% CO2/95% relative humidity. After that, PBMC (2 × 10^6 cells/well), Vero (1 × 10^4 cells/well), HaCaT (1 × 10^4 cells/well) and 3T3-L1 (1 × 10^4 cells/well) were individually seeded into 96-well plate and cultured at 37 °C overnight. Next, two-fold serially diluted peptides (3.13–200 μg/mL) were added to the cell culture. After incubation in 5% (v/v) CO2 incubator for 24 h, the medium culture was removed and MTT solution ([…] final concentration in fresh medium culture) was added to the cells and incubated for 30 min. Thereafter, the medium was removed and DMSO (100 µL) was added to each well to dissolve the formazan crystals. The optical density at 570 nm was determined using a microplate reader (ALLSHENG, Zhejiang, China). The cytotoxicity of IL15.3 against Vero, HaCaT and 3T3-L1 cells in the absence of FBS was also measured by the MTT assay to confirm the peptide is not sequestered by proteins in the serum causing artificially low cytotoxicity against eukaryotic cells.
(§4) Cell viability was determined using the equation: %cellviability=OD570ofsample/OD570ofuntreatedcontrol×100
(§5) GraphPad Prism8 (San Diego, CA, USA) was used to calculate IC50 values using a non-linear regression model.

[10] = test system: human peripheral blood mononuclear cells (PBMC); assay type: cell-based; settings: 24 h
Description: as §3, §4, §5

In the case of IKHWKKVWKHAKKVL [IL15.3], the increase in antimicrobial activity vs QL17 is reported as over 1000 fold, the “Hemolysis concentration50 (HC50)” value (human erythrocytes) is reported as over 2000 µg/mL and the MBC [1] is reported as 25 µg/mL. It also gave an MBC [2] of 18 µg/mL, an MBC [3] of 12 µg/mL and an MBC [4] of 12 µg/mL. It also gave an MBC [5] of 6 µg/mL, an MBC [6] of 25 µg/mL and an MIC [7] of 8 µg/mL. For the same sequence, the MIC [8] was 4 µg/mL, the “time to inhibit the growth kinetic rate” value (E. coli (ATCC25922); 1 × MIC, 37 °C, 1 × 10^6 CFU/mL, colony count) was at most 60 min and the “time to completely stop growth” value (E. coli (ATCC25922); 1 × MIC, 37 °C, colony count) was 180 min. For the same sequence, the “time to begin to inhibit growth kinetic rate” value (E. coli (ATCC25922); 2 × MIC, 37 °C, colony count) was at most 30 min, the “time to fully kill the cells” value (E. coli (ATCC25922); 2 × MIC, 37 °C, colony count) was at most 180 min and the regrowth of cells (E. coli (ATCC25922); 2 × MIC, after 48 h) was “did not allow the cells to regrow”. The “IC50 HaCaT” value [9] was over 200 µg/mL and the “IC50 PBMC” value [10] was over 200 µg/mL.
